Source: patent US20260053767A1, “Hepatoprotective Compositions And Methods” (Jemyll, Ltd., priority 2022, published 2026)

What was measured:
[1] = tested on: rat primary HSCs; test: HSCs activation by flow cytometry (α-SMA and collagen type I protein expression); type: cell-based; conditions: 3 days CM from palmitate-treated hepatocytes, then 1% (w/vol) for 24 hours, without compound 25.15%
Experimental: (§1) A 10% (w/v) FFA-free BSA (Sigma) solution was prepared in ddH2O and maintained at 55° C. in a water bath. 10 mM FFA/1% BSA solution was obtained by complexing the appropriate amount of palmitate stock solution to 10% BSA at 55° C. for another 30 min. The above solution was then cooled to 25° C., filter sterilized and stored at −20° C. until use. Primary hepatocytes were grown in DMEM supplemented with palmitate (0.4 mM). After 24 h. CM was clarified by centrifugation at 6000 g to remove cell debris, sterile filtered with a 0.45 μm pore size membrane filter and stored in aliquots at −20° C. until use.
(§2) Hepatic Stellate cells: Primary hepatic stellate cells were isolated from Wistar rats as described previously (7). In brief, the rats were surgically opened under anesthesia, and the livers were perfused through the IVC with 0.5 mM EGTA, after which the portal vein was cut and the upper IVC was clamped. […] HSCs activation was assessed by flow cytometry by evaluating alpha-smooth muscle Actin (α-SMA) and Collagen type I alpha 1 (COLIA1) protein expression. α-SMA and COLIA1 antibodies were obtained from Thermo Fisher scientific (Waltham, MA). Flow cytometric analysis was conducted with CytoFlex (Beckman Coulter, Brea, CA) and data analyzed with Kaluza software (Beckman Coulter, Brea, CA). […]

[2] = tested on: cancer bearing mice; test: Administration of DDDA to cancer bearing mice; conditions: mouse, in vivo
Source text: Thus, DDDA in low doses (5 g or less, or 4 g or less, or 3 g, or less, or 2 g or less, or 1 g or less) may be used for chemoprevention of HCC in healthy liver or livers of NASH/NAFLD individuals, presumably due to reduction of chronic subacute inflammation.

[3] = tested on: rat primary HSCs; test: HSCs apoptosis by flow cytometry using propidium iodide staining; type: cell-based; conditions: 1% (w/vol)
Experimental: as §1
as §2, with “(7).” for “(7). In brief, the rats were surgically opened under anesthesia, and the livers were perfused through the IVC with 0.5 mM EGTA, after which the portal vein was cut and the upper IVC was clamped.”
Subsequently, protein expression of two established markers of HSCs activation, namely collagen type 1 (COLA1A) and alpha-smooth muscle actin (αSMA), was determined by flow cytometry analysis. […] Next, the inventors analyzed the effect of DODA on HSCs apoptosis. […]

[4] = NIDDM patients, intravenous infusion; cited from earlier work

SMILES: O=C(O)CCCCCCCCCCC(=O)O [DDDA, dodecanedioic acid]
- expression of COLA1A and α-SMA (flow cytometry) [1]: 9.18%
- effect in cancer bearing mice [2]: helpful for liver blastomas and potentially NASH associated carcinomas
- HSCs apoptosis ([3]; CM from palmitate-treated hepatocytes, propidium iodide staining): induces HSCs apoptosis
- cell death (propidium iodide staining, flow cytometry) ([3]; rat primary HSCs, CM from steatotic hepatocytes, without compound 8.39%): 16.16%
- plasma glucose levels during infusion [4]: significantly decreased
